Test results reported in ChEMBL document CHEMBL3588745, “Optimization of ADME Properties for Sulfonamides Leading to the Discovery of a T-Type Calcium Channel Blocker, ABT-639” (ACS Med Chem Lett, 2015).
Where “and” joins values, the source holds several entries; their conditions need not be identical. Identical values can stand only once. Calls of active or inactive are those of the source. No cut-off for these calls is given here.

Legend:
[1] = target: T1, Voltage-dependent T-type calcium channel subunit alpha-1H (Homo sapiens, UniProt O95180); assay: Inhibition of human recombinant Cav3.2 channel
[2] = target: T1, Voltage-dependent T-type calcium channel subunit alpha-1H; assay: Inhibition of human recombinant Cav3.2 channel at 10 uM
[3] = Plasma clearance in rat at 5 uM/kg, iv or 30 uM/kg, po; format: ADME, organism-based
[4] = Stability in rat liver microsomes assessed as compound remaining at 1 uM after 30 mins; format: ADME; details: read-out: Stability
[5] = Stability in human liver microsomes assessed as compound remaining at 1 uM after 30 mins; format: ADME; details: read-out: Stability
Rattus norvegicus [6] = assay: Antinociceptive activity in Sprague-Dawley rat model of capsaicin-induced secondary mechanical hyperalgesia model assessed as attenuation of nociception at 500 uM/kg, ip administered 1 hr before behavioral testing by von Frey filaments test; format: functional, organism-based
[7] = Terminal phase volume of distribution in rat at 5 uM/kg, iv or 30 uM/kg, po; format: ADME, organism-based; details: in vivo, read-out: Vbeta
Rattus norvegicus [8] = assay: Cardiovascular toxicity in Sprague-Dawley rat at 30 mg/kg, iv assessed as induction of changes in heart rate; format: organism-based; details: in vivo
[9] = target: Voltage-dependent T-type calcium channel subunit alpha-1H (Rattus norvegicus, UniProt Q9EQ60); assay: Inhibition of Cav3.2 channel in rat DRG neurons assessed as reduction in LVA currents
Rattus norvegicus [10] = assay: Toxicity in orally dosed Sprague-Dawley rat assessed effect on animal balance by Edge test; format: organism-based; details: in vivo, po
Rattus norvegicus [11] = assay: Toxicity in orally dosed Sprague-Dawley rat assessed effect on animal motor performance by Edge test; format: organism-based; details: in vivo, po
[12] = Protein binding in human; format: ADME, organism-based; details: plasma, read-out: PB (converted)
Rattus norvegicus [13] = assay: Antinociceptive activity in Sprague-Dawley rat model of capsaicin-induced secondary mechanical hyperalgesia model assessed as attenuation of nociception at 3 to 100 mg/kg, po administered 1 hr before behavioral testing by von Frey filaments test; format: functional, organism-based
[14] = Stability in monkey liver microsomes assessed as compound remaining at 1 uM after 30 mins; format: ADME, Macaca mulatta; details: rhesus monkey, read-out: Stability
Rattus norvegicus [15] = assay: Cardiovascular toxicity in Sprague-Dawley rat at 30 mg/kg, iv assessed as induction of changes in mean arterial pressure; format: organism-based, Artery; details: in vivo
Rattus norvegicus [16] = assay: Cardiovascular toxicity in Sprague-Dawley rat at 30 mg/kg, iv assessed as induction of changes in vascular resistance; format: organism-based; details: in vivo
[17] = target: T2, Aryl hydrocarbon receptor (Homo sapiens, UniProt P35869); assay: Activation of aryl hydrocarbon receptor (unknown origin) assessed as induction of CYP1A2 mRNA expression; format: ADME
T2 sequence (P35869 whole entry): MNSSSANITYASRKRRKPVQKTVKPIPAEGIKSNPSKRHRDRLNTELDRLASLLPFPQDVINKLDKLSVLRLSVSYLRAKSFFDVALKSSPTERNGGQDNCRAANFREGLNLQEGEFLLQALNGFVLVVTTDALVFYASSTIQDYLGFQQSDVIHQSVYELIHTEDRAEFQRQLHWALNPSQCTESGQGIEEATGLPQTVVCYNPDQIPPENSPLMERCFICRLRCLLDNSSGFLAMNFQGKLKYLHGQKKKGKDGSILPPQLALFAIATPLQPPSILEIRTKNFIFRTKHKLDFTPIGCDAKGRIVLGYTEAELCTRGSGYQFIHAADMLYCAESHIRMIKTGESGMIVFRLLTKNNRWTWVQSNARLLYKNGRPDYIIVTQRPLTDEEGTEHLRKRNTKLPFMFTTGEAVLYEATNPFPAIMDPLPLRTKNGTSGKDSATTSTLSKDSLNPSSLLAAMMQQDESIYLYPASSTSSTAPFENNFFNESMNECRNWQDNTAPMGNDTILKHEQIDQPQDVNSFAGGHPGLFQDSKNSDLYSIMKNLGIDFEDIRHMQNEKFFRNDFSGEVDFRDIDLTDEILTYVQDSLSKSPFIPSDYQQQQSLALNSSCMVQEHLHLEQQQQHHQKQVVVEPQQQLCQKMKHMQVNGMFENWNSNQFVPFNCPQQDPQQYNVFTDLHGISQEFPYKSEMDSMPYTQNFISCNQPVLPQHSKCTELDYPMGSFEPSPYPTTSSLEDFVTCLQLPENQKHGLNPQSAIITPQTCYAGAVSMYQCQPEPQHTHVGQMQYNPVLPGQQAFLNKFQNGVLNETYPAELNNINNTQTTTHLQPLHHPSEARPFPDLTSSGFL

Rattus norvegicus [18] = assay: Cardiovascular toxicity in Sprague-Dawley rat at 30 mg/kg, iv assessed as induction of changes in left ventricular contractility; format: organism-based, Heart left ventricle; details: in vivo
[19] = target: T3, Nuclear receptor subfamily 1 group I member 2 (Homo sapiens, UniProt O75469); assay: Activation of PXR (unknown origin) assessed as induction of CYP3A4; format: ADME
T3 sequence (O75469 whole entry): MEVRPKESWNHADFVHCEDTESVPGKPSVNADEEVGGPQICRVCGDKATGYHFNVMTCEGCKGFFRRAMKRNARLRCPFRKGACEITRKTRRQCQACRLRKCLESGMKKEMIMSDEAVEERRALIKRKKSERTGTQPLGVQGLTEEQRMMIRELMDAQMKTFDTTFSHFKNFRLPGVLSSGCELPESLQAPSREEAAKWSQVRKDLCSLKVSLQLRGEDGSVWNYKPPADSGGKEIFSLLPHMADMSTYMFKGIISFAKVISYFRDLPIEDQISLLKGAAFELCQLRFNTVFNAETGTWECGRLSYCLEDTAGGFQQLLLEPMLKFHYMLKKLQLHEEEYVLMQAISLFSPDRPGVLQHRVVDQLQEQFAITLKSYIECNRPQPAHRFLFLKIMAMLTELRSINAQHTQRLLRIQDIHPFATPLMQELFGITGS

[20] = Aqueous solubility in phosphate buffer at pH 7.4; format: physicochemical
[21] = Protein binding in rat; format: ADME, organism-based; details: plasma, read-out: PB (converted)
Plasma = assay: Plasma concentration in Sprague-Dawley rat at 30 mg/kg, iv; format: ADME, organism-based; details: in vivo
[22] = Stability in dog liver microsomes assessed as compound remaining at 1 uM after 30 mins; format: ADME, Canis lupus familiaris; details: read-out: Stability
[23] = Solubility in 0.1 HCl solution; format: physicochemical

T1 sequence (O95180 whole entry): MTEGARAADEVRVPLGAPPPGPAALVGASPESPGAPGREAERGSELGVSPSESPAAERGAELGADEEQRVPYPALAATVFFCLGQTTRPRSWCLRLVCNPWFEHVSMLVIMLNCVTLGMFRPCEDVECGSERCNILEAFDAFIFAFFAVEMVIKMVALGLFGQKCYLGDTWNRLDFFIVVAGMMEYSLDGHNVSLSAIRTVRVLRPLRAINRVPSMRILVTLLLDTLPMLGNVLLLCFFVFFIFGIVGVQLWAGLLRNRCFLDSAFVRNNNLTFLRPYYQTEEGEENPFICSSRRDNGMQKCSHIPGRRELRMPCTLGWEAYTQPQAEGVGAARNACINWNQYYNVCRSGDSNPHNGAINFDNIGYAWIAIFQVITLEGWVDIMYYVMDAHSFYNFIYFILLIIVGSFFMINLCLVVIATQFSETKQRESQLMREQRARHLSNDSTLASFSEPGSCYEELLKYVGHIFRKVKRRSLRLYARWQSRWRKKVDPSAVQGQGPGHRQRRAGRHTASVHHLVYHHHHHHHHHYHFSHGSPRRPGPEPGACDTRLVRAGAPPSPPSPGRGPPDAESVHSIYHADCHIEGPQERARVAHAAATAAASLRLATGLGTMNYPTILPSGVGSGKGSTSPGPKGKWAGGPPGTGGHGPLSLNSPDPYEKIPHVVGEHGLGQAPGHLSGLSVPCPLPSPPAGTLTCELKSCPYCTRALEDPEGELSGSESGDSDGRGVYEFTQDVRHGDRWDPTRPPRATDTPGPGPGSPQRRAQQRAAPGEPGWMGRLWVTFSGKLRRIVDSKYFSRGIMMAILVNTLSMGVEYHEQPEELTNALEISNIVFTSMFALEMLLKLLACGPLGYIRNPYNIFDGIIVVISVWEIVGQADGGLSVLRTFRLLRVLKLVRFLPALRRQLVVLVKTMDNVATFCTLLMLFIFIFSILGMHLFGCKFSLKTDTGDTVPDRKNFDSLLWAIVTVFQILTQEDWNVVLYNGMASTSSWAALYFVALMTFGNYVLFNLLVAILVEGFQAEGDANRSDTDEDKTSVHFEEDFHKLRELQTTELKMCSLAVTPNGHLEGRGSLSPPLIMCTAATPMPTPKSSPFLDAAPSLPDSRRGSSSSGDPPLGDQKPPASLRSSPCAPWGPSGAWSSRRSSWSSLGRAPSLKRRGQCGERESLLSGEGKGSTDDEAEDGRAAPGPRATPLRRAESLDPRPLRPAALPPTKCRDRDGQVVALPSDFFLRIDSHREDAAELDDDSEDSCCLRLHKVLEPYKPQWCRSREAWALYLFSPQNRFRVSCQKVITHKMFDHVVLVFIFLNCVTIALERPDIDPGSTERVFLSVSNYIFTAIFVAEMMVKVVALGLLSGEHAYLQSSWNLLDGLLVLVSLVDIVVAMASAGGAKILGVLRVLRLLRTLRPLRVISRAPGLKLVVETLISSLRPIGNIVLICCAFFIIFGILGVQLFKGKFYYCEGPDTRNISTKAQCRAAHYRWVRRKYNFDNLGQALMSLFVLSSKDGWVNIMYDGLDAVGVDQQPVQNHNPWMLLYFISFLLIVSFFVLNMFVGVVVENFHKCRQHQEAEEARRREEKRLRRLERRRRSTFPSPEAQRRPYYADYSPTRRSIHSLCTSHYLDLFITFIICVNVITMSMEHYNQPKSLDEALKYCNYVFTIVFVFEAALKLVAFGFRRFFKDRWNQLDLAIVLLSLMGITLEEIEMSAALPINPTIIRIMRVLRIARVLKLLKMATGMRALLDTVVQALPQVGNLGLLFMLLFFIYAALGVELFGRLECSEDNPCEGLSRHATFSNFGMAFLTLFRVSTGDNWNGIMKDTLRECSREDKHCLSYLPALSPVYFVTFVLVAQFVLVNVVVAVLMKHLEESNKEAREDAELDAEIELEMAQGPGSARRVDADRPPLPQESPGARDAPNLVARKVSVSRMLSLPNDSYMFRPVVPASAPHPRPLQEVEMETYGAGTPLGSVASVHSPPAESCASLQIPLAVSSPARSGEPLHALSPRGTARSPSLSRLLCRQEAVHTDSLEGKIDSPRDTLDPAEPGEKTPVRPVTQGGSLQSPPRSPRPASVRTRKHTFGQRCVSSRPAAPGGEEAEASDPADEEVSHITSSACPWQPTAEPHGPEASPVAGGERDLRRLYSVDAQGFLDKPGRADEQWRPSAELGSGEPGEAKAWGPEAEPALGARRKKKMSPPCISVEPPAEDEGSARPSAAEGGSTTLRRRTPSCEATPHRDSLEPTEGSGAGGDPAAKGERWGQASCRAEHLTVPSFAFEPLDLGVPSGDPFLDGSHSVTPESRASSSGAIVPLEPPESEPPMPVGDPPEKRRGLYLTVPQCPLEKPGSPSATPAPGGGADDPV
Voltage-dependent T-type calcium channel subunit alpha-1H (Rattus norvegicus, UniProt Q9EQ60), sequence (Q9EQ60 whole entry): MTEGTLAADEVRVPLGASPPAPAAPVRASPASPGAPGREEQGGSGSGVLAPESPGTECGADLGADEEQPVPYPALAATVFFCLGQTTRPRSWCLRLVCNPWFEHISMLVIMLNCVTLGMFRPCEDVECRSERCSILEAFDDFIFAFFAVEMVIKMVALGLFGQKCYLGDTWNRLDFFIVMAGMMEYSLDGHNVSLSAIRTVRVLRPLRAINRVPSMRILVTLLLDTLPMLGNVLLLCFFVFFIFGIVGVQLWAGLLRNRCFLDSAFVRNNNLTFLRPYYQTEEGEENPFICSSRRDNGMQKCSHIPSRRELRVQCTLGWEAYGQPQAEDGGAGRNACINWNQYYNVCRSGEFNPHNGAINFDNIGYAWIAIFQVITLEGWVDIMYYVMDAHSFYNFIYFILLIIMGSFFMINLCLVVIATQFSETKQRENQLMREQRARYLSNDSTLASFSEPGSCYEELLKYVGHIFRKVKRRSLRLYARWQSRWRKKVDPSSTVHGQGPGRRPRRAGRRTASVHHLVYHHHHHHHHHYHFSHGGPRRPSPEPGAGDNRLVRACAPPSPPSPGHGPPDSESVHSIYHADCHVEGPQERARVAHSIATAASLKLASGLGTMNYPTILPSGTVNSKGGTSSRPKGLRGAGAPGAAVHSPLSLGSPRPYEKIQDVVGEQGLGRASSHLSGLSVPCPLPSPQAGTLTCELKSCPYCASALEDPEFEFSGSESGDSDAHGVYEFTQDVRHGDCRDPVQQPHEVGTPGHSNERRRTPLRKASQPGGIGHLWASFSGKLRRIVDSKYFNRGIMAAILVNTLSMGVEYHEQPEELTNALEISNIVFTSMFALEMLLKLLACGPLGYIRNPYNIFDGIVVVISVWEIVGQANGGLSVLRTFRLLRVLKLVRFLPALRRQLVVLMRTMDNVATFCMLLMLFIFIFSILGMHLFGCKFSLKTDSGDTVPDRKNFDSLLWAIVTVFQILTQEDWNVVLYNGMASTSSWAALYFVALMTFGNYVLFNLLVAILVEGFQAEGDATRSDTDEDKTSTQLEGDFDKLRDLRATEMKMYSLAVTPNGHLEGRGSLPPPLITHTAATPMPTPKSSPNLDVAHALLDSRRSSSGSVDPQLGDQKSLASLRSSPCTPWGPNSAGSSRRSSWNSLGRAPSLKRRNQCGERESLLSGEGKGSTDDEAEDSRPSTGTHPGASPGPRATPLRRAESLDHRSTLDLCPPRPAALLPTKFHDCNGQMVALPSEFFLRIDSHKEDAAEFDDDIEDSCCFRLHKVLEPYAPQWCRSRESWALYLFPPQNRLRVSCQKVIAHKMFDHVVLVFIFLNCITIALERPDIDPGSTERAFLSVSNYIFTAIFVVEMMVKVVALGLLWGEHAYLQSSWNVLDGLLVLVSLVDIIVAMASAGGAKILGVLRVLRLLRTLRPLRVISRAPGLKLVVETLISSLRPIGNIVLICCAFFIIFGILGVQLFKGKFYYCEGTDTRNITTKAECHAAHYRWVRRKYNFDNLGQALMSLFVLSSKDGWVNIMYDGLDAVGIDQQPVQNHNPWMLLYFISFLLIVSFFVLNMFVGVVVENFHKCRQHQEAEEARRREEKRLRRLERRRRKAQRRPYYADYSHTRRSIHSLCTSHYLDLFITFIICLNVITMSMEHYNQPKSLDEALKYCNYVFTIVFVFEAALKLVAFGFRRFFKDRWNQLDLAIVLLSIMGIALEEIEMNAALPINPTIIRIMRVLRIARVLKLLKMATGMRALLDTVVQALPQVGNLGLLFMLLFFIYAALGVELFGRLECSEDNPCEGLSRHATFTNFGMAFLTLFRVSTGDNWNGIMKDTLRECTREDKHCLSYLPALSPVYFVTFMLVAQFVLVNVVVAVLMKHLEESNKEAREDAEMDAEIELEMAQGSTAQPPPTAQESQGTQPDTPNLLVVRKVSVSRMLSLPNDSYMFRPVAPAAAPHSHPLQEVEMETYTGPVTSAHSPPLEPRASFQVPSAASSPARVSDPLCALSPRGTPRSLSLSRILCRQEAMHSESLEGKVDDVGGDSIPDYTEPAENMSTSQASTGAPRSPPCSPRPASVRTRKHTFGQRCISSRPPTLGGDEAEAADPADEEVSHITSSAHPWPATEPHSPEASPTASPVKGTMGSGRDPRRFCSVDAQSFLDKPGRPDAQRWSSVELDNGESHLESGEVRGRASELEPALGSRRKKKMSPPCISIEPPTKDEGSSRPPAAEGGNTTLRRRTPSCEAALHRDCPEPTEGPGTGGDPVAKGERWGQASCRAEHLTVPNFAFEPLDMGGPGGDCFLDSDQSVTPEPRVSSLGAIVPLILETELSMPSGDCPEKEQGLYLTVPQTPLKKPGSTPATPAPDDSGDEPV

O=C(c1cc(S(=O)(=O)Nc2ccccc2F)c(Cl)cc1Cl)N1CCN2CCC[C@@H]2C1
IC50 [1]: 19 µM

O=C(c1cccc(S(=O)(=O)Nc2ccc(C(F)(F)F)cc2)c1)N1CCN2CCC[C@@H]2C1
inhibition [2]: < 30%
clearance [3]: 7.5 mL/min/kg

CC1Cc2ccccc2N1S(=O)(=O)c1cccc(C(=O)NCC2CCCCC2)c1 (configuration not stated)
remaining at 0.5 h, 1 µM [4]: 0.1%
IC50 [1]: 5 µM

CN(c1ccccc1F)S(=O)(=O)c1cc(C(=O)N2CCN3CCC[C@@H]3C2)c(Cl)cc1F
remaining at 0.5 h, 1 µM [4]: 0.04%
remaining at 0.5 h, 1 µM [5]: < 0.01%

O=C(c1cccc(S(=O)(=O)Nc2cccc(F)c2F)c1)N1CCN2CCC[C@H]2C1
inhibition [2]: < 30%
clearance [3]: 38 mL/min/kg

O=C(c1cccc(S(=O)(=O)Nc2ccccc2C(F)(F)F)c1)N1CCN2CCC[C@@H]2C1
inhibition [2]: < 30%
clearance [3]: 12.3 mL/min/kg

NCC1(CC(=O)O)CCCCC1
Activity (Rattus norvegicus [6]): Active

C[C@@H]1CN(C(=O)c2cccc(S(=O)(=O)Nc3ccc(F)cc3)c2)C[C@H](C)O1
remaining at 0.5 h, 1 µM [4]: 46%
Vd at 5 µmol/kg [7]: 0.75 L/kg
clearance [3]: 27.7 mL/min/kg

O=C(c1cccc(S(=O)(=O)Nc2ccccc2F)c1)N1CCN2CCC[C@@H]2C1
remaining at 0.5 h, 1 µM [4]: 68%
Vd at 5 µmol/kg [7]: 0.65 L/kg
clearance [3]: 29.8 mL/min/kg

O=C(c1cccc(S(=O)(=O)Nc2ccccc2F)c1)N1CCN2CCC[C@H]2C1
inhibition [2]: < 30%
clearance [3]: 56 mL/min/kg

CC1CC(C)CN(C(=O)c2cccc(S(=O)(=O)N3c4ccccc4CC3C)c2)C1 (configuration not stated)
remaining at 0.5 h, 1 µM [4]: 0.3%
IC50 [1]: 3 µM

O=C(c1cccc(S(=O)(=O)Nc2c(F)cccc2F)c1)N1CCN2CCC[C@@H]2C1
inhibition [2]: < 30%
clearance [3]: 15.3 mL/min/kg

Cl.O=C(c1cc(S(=O)(=O)Nc2ccccc2F)c(F)cc1Cl)N1CCN2CCC[C@@H]2C1
Activity (Rattus norvegicus [8]): Non-toxic
remaining at 0.5 h, 1 µM [4]: 81%
Vd at 5 µmol/kg [7]: 2.7 L/kg
IC50 [9]: 7.6 µM
remaining at 0.5 h, 1 µM [5]: 95%
ED50 (Rattus norvegicus [10]): > 300 mg kg-1 and 114 ug ml-1
ED50 (Rattus norvegicus [11]): > 300 mg kg-1 and 114 ug ml-1
fraction unbound [12]: 0.148
Activity (Rattus norvegicus [13]): Dose-dependent effect
remaining at 0.5 h, 1 µM [14]: 88%
Activity (Rattus norvegicus [15]): Non-toxic
Activity (Rattus norvegicus [16]): Non-toxic
IC50 [1]: 2.3 µM
EC50 [17]: > 10 µM
clearance [3]: 9.17 mL/min/kg
Activity (Rattus norvegicus [18]): Non-toxic
EC50 [19]: > 10 µM
solubility [20]: 489 µM
fraction unbound [21]: 0.111
Cp (Plasma): 43900 ng/mL
remaining at 0.5 h, 1 µM [22]: 100%
solubility [23]: > 9500 µM

O=C(c1cccc(S(=O)(=O)Nc2ccc(C(F)(F)F)cc2)c1)N1CCN2CCC[C@H]2C1
inhibition [2]: < 30%
clearance [3]: 13.5 mL/min/kg

O=C(c1cccc(S(=O)(=O)Nc2ccccc2Cl)c1)N1CCN2CCC[C@@H]2C1
inhibition [2]: < 30%
clearance [3]: 32.2 mL/min/kg

O=C(c1cccc(S(=O)(=O)Nc2cccc(F)c2F)c1)N1CCN2CCC[C@@H]2C1
inhibition [2]: < 30%
clearance [3]: 20.2 mL/min/kg
